The record followed here is patent US6521643B1, “Pyridine compounds and their pharmaceutical use” (Fujisawa Pharmaceutical Co., Ltd., priority 1999, dated 2003).

Where a name gives a salt, the structure may show the parent alone.

In data set [1] the target is T1, Nitric Oxide Synthase (NOS) (Rattus norvegicus, UniProt P29476).
T1 construct: each drug was incubated with the brain cytosol (200 μg protein/tube); from tissue; host or cells: whole brain (including cerebellum) of male SD rats, cytosolic supernatant (48,000 x g), passed through Dowex AG50WX-8
As to the kind of experiment: Binding assay using nitric oxide synthase (NOS), crude preparation from rat brain cytosol, [3H]Na radioligand. The conditions noted are these: test compound 10^−4M, brain cytosol of male SD rats, 10 nM [^3H]Na, 27° C., 90 minutes; for inhibition: read-out: Inhibition (%) of specific binding. The procedure: Test: Binding Assay Using Nitric Oxide Synthase (NOS)
A crude preparation of NOS was obtained from brains of male SD rats. The whole brain (including cerebellum) was homogenized with 5 volume (W/V) of 50 mM Tris buffer (pH 7.0 at 4° C.) and centrifuged at 48,000×g for 20 minutes. The pellet was discarded and the supernatant was passed through ¼ volume (V/V) of Dowex AG50WX-8 resin (Na^+ form), in order to remove endogenous arginine. The supernatant was collected, the pH was adjusted to 7.0 at 22° C., and this cytosolic preparation was frozen and stored at −80° C. until required. In the binding assay, each drug was incubated with the brain cytosol (200 μg protein/tube) in 0.15 ml (final volume) of 50 mM Tris buffer containing 10 μM CaCl2 and 10 nM [^3H]Na (Amersham, UK). Incubation was performed at 27° C. for 90 minutes and terminated by vacuum filtration through 0.3% polyethyleneimine pretreated GF/B glass fibre filters which were subsequently washed with distilled water (4° C., 4 ml×4). Nonspecific binding was defined by use of […] Na. Data are expressed as inhibition % of specific binding.

Turning to `COc1ccnc(-c2sc(NC(=N)N)nc2C)c1` [(a), 2-Guanidino-4-methyl-5-(4-methoxypyridin-2-yl)thiazole], the inhibition in data set [1] worked out at 99%.

Turning to `COc1ccnc(-c2ccc(C)c(NC(=N)N)c2)c1.Cl.Cl` [(b), (5-(4-Methoxypyridin-2-yl)-2-methylphenyl)guanidine dihydrochloride], the “Inhibition (%) of specific binding” value in data set [1] was 98.9%.

In the case of `CCSC(=N)Nc1cccc(-c2cc(OC)ccn2)c1` [(c), N-(3-(4-Methoxypyridin-2-yl)phenyl)-S-ethylisothiourea dihydrochloride], the inhibition in data set [1] was found to be 100%.

For the molecule `COc1ccnc(-c2ccc3ccc(N)nc3c2)c1` [(d), 2-Amino-7-(4-methoxypyridin-2-yl)quinoline dihydrochloride], the inhibition in data set [1] is 99.3%.

On to `Cc1ccnc(-c2ccc3ccc(N)nc3c2)c1` [(e), 2-Amino-7-(4-methylpyridin-2-yl)quinoline dihydrochloride], for which the inhibition in data set [1] came out at 98%.

Regarding `CNc1ccc2ccc(-c3cc(OC)ccn3)cc2n1` [(f), 7-(4-Methoxypyridin-2-yl)-2-methylaminoquinoline dihydrochloride], the inhibition in data set [1] is 99.4%.

Take `Cc1ccnc(C(O)c2sc(NC(=N)N)nc2C)c1` (centres unmarked) [Example 24, N-(5-(hydroxy-(4-methylpyridin-2-yl)methyl)-4-methylthiazol-2-yl)guanidine]: the melting point is 150.5 to 151.5 °C.

With `CC(=O)NC(c1cc(C)ccn1)c1sc(NC(=N)N)nc1C` (centres unmarked) [Example 26, N-(5-(acetylamino-(4-methylpyridin-2-yl)methyl)-4-methylthiazol-2-yl)-guanidine], the melting point fell in the range of 239 to 240 °C.

As usually defined, the inhibition is the relative decrease from the control value, in per cent. Broadly, the melting point is the temperature, or range, at which the solid turns liquid.
